Results on 1 substance are retold here after US20030129189A1, “Tumor necrosis factor-gamma” (priority 1994, published 2003).

In experiment [1] the test system is MC-38 murine colon cancer. Briefly: In vivo tumorigenicity assay, syngeneic MC-38 colon cancer. Also noted: species or system C57BL6/6 mice. The following applies: local production by transfected MCA 38 cells, 1×10^6 cells/mouse. As for the experimental part: [The full-length TNF-gamma and extracellular domain of DR3 was cloned into pcDNA3 expression vector and transfected to MCA 38 cells, respectively. After selection and cloning, three clones from each constructs were picked for tumorigenicity study. MCA 38 cells (1×10^6 cells/mouse) expressing TNF-gamma or DR3 extracellular domain were injected into C57BL6/6 mice. The tumor size was assessed by measuring perpendicular diameters with a caliper and calculated by multiplying the measurements of diameters in two dimensions. Data are represented as the mean +/−SD of 6 mice in each group.] It is clear that most immune cells and cancer cells can express more than one TNF receptor (even more than one death receptor) and ligand superfamily member. […] Moreover, the expression of these ligands and receptors may differ at the level of individual cell types within tissues and the expression level on the same cell type may also differ.
The full length TNF-gamma and extracellular domain of DR3 was cloned into pcDNA3 expression vector (Invitrogen, Carlsbad, Calif.) and transfected to MCA 38 cells, respectively. […] Mice then were randomized and tumors were measured twice weekly. The tumor size was assessed by measuring perpendicular diameters with a caliper and calculated by multiplying the measurements of diameters in two dimensions. […]

Another experiment concerns THP-1. The experiment is described as follows: TNF-gamma activity on THP-1 cells. Format: cell-based. More on the design: key: The numbers of “+” indicate the relative level of activities.; ++: The numbers of “+” indicate the relative level of activities.; +++: The numbers of “+” indicate the relative level of activities.; “−” indicates no detected activity at the concentration range tested. As to conditions: THP-1, human monocytic leukemia.

Experiment [2] concerns bovine pulmonary artery endothelial cells (BPAEC). Briefly: Endothelial cell apoptosis (morphology, Hoechst staining, DNA fragmentation). It counts as cell-based. As to conditions: BPAEC, 48 hours, Hoechst 33342. How it is done: [Bovine pulmonary artery endothelial cells were incubated with various concentrations of TNF-gamma for 48 hours. The apoptosis was assessed by nuclear staining with Hoechst 33342 fluorescence dye (10 mg/ml).] […] [U937 cells were transfected using lipofectamine (following manufacturer's instruction) with 0.2 mg of reporter plasmid (NF-kappaB-SEAP). The transfected U937 cells were collected and added to the 96-well plate ([…]/well) with various concentrated of TNF-gamma. After Incubation at 37° C. for 72 hr, the NF-kappaB activity was measured with luminometer at absorbance of 450 nm.]
Bovine pulmonary artery endothelia cells (BPAEC) were incubated with various concentrations of TNF-gamma for 48 hours. Apoptosis was assessed morphologically and by nuclear staining with Hoechst 33342 fluorescence dye (10 mg/ml) in triplicate. Live and apoptotic cells were scored in four random fields, about 1,000 cells were counted. The DNA fragmentation was analyzed as described previously.
BPAEC were obtained from the American Type Culture Collection (Rockville, Md., USA). The cells were grown in DMEM supplemented with 10% heat-inactivated FCS in a humidified environment of 5% CO2/[…] at 37° C. as previously described (Yue, T. L., et al., Mol. Pharmacol. 51:951-962 (1997)). Cells at a subconfluent density were used. Before experiments, the medium was changed to DMEM contained 2% FCS. BPAEC from passages 17-20 were used in all studies.
To quantify cells undergoing apoptosis, cell monolayers were fixed and stained with Hoechst […] (Molecular probe, Eugene, Oreg., USA) as described previously (Yue, T. L., et al., Mol. Pharmacol. 51:951-962 (1997)). The morphological features of apoptosis (cell shrinkage, chromatin condensation, blebbing, and fragmentation) were monitored by fluorescence microscopy. Transmission electron microscopy study was done as reported previously (Yue, T. L., et al., Mol. Pharmacol. 51:951-962 (1997)).
DNA ladder: Cells treated with vehicle or TNF-gamma-alpha were lysed in lysis buffer containing 100 mM NaCl, 10 mM Tris-HCl, pH 8.0, 2.5 mM EEDTA, 0.5% SDS, and 100 micrograms/ml […]. The lysates were incubated at 55° C. for 16 h. After incubation, the lysates were gently extracted three times with pheno/chloroform/isoamyl alcohol, precipitated in ethanol, treated with DNAse-free RNAse, re-extracted, and precipitated again as described previously. DNA electrophoresis was carried out in 1.8% agarose gels containing ethidium bromide, and DNA fragmentations were visualized under ultraviolet light.
In situ end-labeling (TUNEL): BPAEC were cultured in two-chamber slides (Nunc) and treated with TNF-gamma-alpha for 8 to 24 h. In situ detection of apoptotic cells was performed by using terminal deoxyribonucleotide transferase-mediated dUTP nick end labeling with an ApopTag in situ apoptosis detection kit (Oncor) following the manufacturer's recommendation.
The cells were plated in two-chamber slides. The cells were cotransfected with 0.5 μg/ml of Pegfp-c-1 (Clontech; Li, Y. and Horwitz, M. S. Biotechnology 23:1026-1028) as a fluorescent marker of transfected cells together with 1 μg/ml of either the empty cloning vector pcDNA1 (control) or the dominant-interfering c-Jun mutant pcDNA1-FlagΔ169 (Xia, Z., et al., Science 270:1326-1331 (1995)) using Calphos Maximizer Transfection Kit (Clontech) according to the manufacturer's recommendation. Following transfection, the cells were allowed to recover in complete medium for 24 h. The cells were treated with TNF-gamma-alpha and the number of apoptotic cells was assessed by nuclear staining after fixation as described in Methods.

With “TNF-gamma: new member of the tumor necrosis factor family; the term refers to TNF-gamma-alpha and/or TNF-gamma-beta”, the tumor growth entry in experiment [1] is listed as “caused complete tumor suppression”. In the experiment on THP-1, the Adhesion result is listed as “++”, the Differentiation result is listed as “++” and the Proliferation entry was “−”. The apoptosis result in experiment [2] is recorded as “induces apoptosis”.
